Patent US20230107642A1 (Erasca, Inc., priority 2020, published 2023)

Target: T1, Cys12 of the KRAS 4B G12C protein (Homo sapiens, UniProt P01116, G12C)
T1 construct: This protein contained 188 amino acids in total, including an N-terminal 6-Histidine tag; made in house; host or cells: E. coli BL21
Assay: In vitro covalent adduct formation (CAF) assay, LC-MS intact mass
Format: binding
Details: 10 uM compound, 60 min
How it was run: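 Percent covalent modification from intact-mass LC-MS, by relative free versus adducted protein (adducts within 1 Da of expected mass). Reaction: 10 μM compound with 5 μM E. coli-expressed, GDP-exchanged KRAS 4B G12C in TBS pH 7.4, 4% DMSO, 1 h at 22° C.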

SMILES	% CAF 10 uM @ 60 min [%]
C=CC(=O)N1CCN(c2nc(=O)n3c4c(c(-c5ccc(F)cc5)c(C(F)(F)F)cc24)SC[C@@H]3CN2CCN(C3CC3)CC2)CC1 [Example 1321, (S)-7-(4-acryloylpiperazin-1-yl)-3-((4-cyclopropylpiperazin-1-yl)methyl)-10-(4-fluorophenyl)-9-(trifluoromethyl)-2H-[1,4]thiazino[2,3,4-ij]quinazolin-5(3H)-one]	99.3
C=CC(=O)N1C[C@H](C)N(c2nc(=O)n3c4c(c(-c5ccc(F)cc5)c(C(F)(F)F)cc24)SC[C@@H]3COCOC)C[C@H]1C [Example 1328, (S)-7-((2S,5R)-4-acryloyl-2,5-dimethylpiperazin-1-yl)-10-(4-fluorophenyl)-3-((methoxymethoxy)methyl)-9-(trifluoromethyl)-2,3-dihydro-5H-[1,4]thiazino[2,3,4-ij]quinazolin-5-one]	93.8
C=CC(=O)N1[C@H](C)CN(c2nc(=O)n3c4c(c(-c5ccc(F)cc5)c(C(F)(F)F)cc24)SC[C@@H]3CN2CCN(C3CC3)CC2)C[C@@H]1C [Example 1333, (S)-7-((3S,5R)-4-acryloyl-3,5-dimethylpiperazin-1-yl)-3-((4-cyclopropylpiperazin-1-yl)methyl)-10-(4-fluorophenyl)-9-(trifluoromethyl)-2,3-dihydro-5H-[1,4]thiazino[2,3,4-ij]quinazolin-5-one]	61
C=CC(=O)N1[C@H](C)CN(c2nc(=O)n3c4c(c(-c5ccc(F)c(Cl)c5)c(C(F)(F)F)cc24)SC[C@H](N2CCOCC2)C3)C[C@@H]1C [Example 1336, (R)-8-((3S,5R)-4-acryloyl-3,5-dimethylpiperazin-1-yl)-11-(3-chloro-4-fluorophenyl)-3-morpholino-10-(trifluoromethyl)-3,4-dihydro-2H,6H-[1,4]thiazepino[2,3-4-ij]quinazolin-6-one]	85.5
C=CC(=O)N1[C@H](C)CN(c2nc(=O)n3c4c(c(-c5ccc(F)c(OC(F)F)c5)c(Cl)cc24)SC[C@@H]3COC)C[C@@H]1C [Example 1343, (S)-7-((3S,5R)-4-acryloyl-3,5-dimethylpiperazin-1-yl)-9-chloro-10-(3-(difluoromethoxy)-4-fluorophenyl)-3-(methoxymethyl)-2,3-dihydro-5H-[1,4]thiazino[2,3,4-ij]quinazolin-5-one]	96
C=CC(=O)N1[C@H](C)CN(c2nc(=O)n3c4c(c(-c5ccc(F)cc5F)c(Cl)cc24)SC[C@@H]3COC)C[C@@H]1C [Example 1343a, (3S)-7-((3S,5R)-4-acryloyl-3,5-dimethylpiperazin-1-yl)-9-chloro-10-(2,4-difluorophenyl)-3-(methoxymethyl)-2,3-dihydro-5H-[1,4]thiazino[2,3,4-ij]quinazolin-5-one]	96.8
C=CC(=O)N1[C@H](C)CN(c2nc(=O)n3c4c(c(-c5ccc(F)cc5)c(C(F)(F)F)cc24)SC[C@@H]3CN2CCN(CC)CC2)C[C@@H]1C [Example 1344, (S)-7-((3S,5R)-4-acryloyl-3,5-dimethylpiperazin-1-yl)-3-((4-ethylpiperazin-1-yl)methyl)-10-(4-fluorophenyl)-9-(trifluoromethyl)-2,3-dihydro-5H-[1,4]thiazino[2,3,4-ij]quinazolin-5-one]	96
C=CC(=O)N1CCN(c2nc(=O)n3c4c(c(-c5ccc(F)c(Cl)c5)c(C(F)(F)F)cc24)SC[C@@H]3COC)CC1 [Example 1345, (S)-7-(4-acryloylpiperazin-1-yl)-10-(3-chloro-4-fluorophenyl)-3-(methoxymethyl)-9-(trifluoromethyl)-2,3-dihydro-5H-[1,4]thiazino[2,3,4-ij]quinazolin-5-one]	90
C=CC(=O)N1CCN(c2nc(=O)n3c4c(c(-c5ccc(F)cc5)c(C(F)(F)F)cc24)SC[C@@H]3CN2C[C@@H]3C[C@H]2CO3)CC1 [Example 1350, (S)-3-(((1S,4S)-2-oxa-5-azabicyclo[2.2.1]heptan-5-yl)methyl)-7-(4-acryloylpiperazin-1-yl)-10-(4-fluorophenyl)-9-(trifluoromethyl)-2,3-dihydro-5H-[1,4]thiazino[2,3,4-ij]quinazolin-5-one]	81.3
C=CC(=O)N1C[C@H](C)N(c2nc(=O)n3c4c(c(-c5ccc(F)cc5)c(C(F)(F)F)cc24)SC[C@@H]3CN2C[C@@H]3C[C@H]2CO3)C[C@H]1C [Example 1351, (S)-3-(((1S,4S)-2-oxa-5-azabicyclo[2.2.1]heptan-5-yl)methyl)-7-((2S,5R)-4-acryloyl-2,5-dimethylpiperazin-1-yl)-10-(4-fluorophenyl)-9-(trifluoromethyl)-2,3-dihydro-5H-[1,4]thiazino[2,3,4-ij]quinazolin-5-one]	64.8
C=CC(=O)N1[C@H](C)CN(c2nc(=O)n3c4c(c(-c5ccc(F)cc5)c(C(F)(F)F)cc24)SC[C@@H]3CN2C[C@@H]3C[C@H]2CO3)C[C@@H]1C [Example 1352, (S)-3-(((1S,4S)-2-oxa-5-azabicyclo[2.2.1]heptan-5-yl)methyl)-7-((3S,5R)-4-acryloyl-3,5-dimethylpiperazin-1-yl)-10-(4-fluorophenyl)-9-(trifluoromethyl)-2,3-dihydro-5H-[1,4]thiazino[2,3,4-ij]quinazolin-5-one]	96.1
C=CC(=O)N1[C@H](C)CN(c2nc(=O)n3c4c(c(-c5ccc(F)c(Cl)c5)c(C(F)(F)F)cc24)SCC2(COC2)C3)C[C@@H]1C [Example 1353, 8′-((3S,5R)-4-acryloyl-3,5-dimethylpiperazin-1-yl)-11′-(3-chloro-4-fluorophenyl)-10′-(trifluoromethyl)-2′H,4′H,6′H-spiro[oxetane-3,3′-[1,4]thiazepino[2,3,4-ij]quinazolin]-6′-one]	96.4
C=CC(=O)N1C[C@H](C)N(c2nc(=O)n3c4c(c(-c5ccc(F)c(Cl)c5)c(C(F)(F)F)cc24)SCC2(COC2)C3)C[C@H]1C [Example 1354, 8′-((2S,5R)-4-acryloyl-2,5-dimethylpiperazin-1-yl)-11′-(3-chloro-4-fluorophenyl)-10′-(trifluoromethyl)-2′H,4′H,6′H-spiro[oxetane-3,3′-[1,4]thiazepino[2,3,4-ij]quinazolin]-6′-one]	96
C=CC(=O)N1CCN(c2nc(=O)n3c4c(c(-c5ccc(F)c(Cl)c5)c(C(F)(F)F)cc24)SCC2(COC2)C3)CC1 [Example 1357, 8-(4-acryloylpiperazin-1-yl)-11-(3-chloro-4-fluorophenyl)-10-(trifluoromethyl)-2H-spiro[[1,4]thiazepino[2,3,4-ij]quinazoline-3,3′-oxetan]-6(4H)-one]	92.4
C=CC(=O)N1C[C@H](C)N(c2nc(=O)n3c4c(c(-c5cc(Cl)c(F)cc5F)c(C(F)(F)F)cc24)SCC2(COC2)C3)C[C@H]1C [Example 1357a]	74.3
C=CC(=O)N1CCN(c2nc(=O)n3c4c(c(-c5ccc(F)cc5)c(C(F)(F)F)cc24)SC[C@@H]3COCOC)CC1 [Example 1358, (S)-7-(4-acryloylpiperazin-1-yl)-10-(4-fluorophenyl)-3-((methoxymethoxy)methyl)-9-(trifluoromethyl)-2H-[1,4]thiazino[2,3,4-ij]quinazolin-5(3H)-one]	96.3
C=CC(=O)N1[C@H](C)CN(c2nc(=O)n3c4c(c(-c5ccc(F)c(Cl)c5)c(C(F)(F)F)cc24)SC[C@@H]3COCOC)C[C@@H]1C [Example 1359, (S)-7-((3S,5R)-4-acryloyl-3,5-dimethylpiperazin-1-yl)-10-(3-chloro-4-fluorophenyl)-3-((methoxymethoxy)methyl)-9-(trifluoromethyl)-2,3-dihydro-5H-[1,4]thiazino[2,3,4-ij]quinazolin-5-one]	74.6
C=CC(=O)N1CCN(c2nc(=O)n3c4c(c(-c5ccc(F)c(Cl)c5)c(C(F)(F)F)cc24)SC[C@@H]3COCOC)CC1 [Example 1362, (S)-7-(4-acryloylpiperazin-1-yl)-10-(3-chloro-4-fluorophenyl)-3-((methoxymethoxy)methyl)-9-(trifluoromethyl)-2,3-dihydro-5H-[1,4]thiazino[2,3,4-ij]quinazolin-5-one]	96.2
C=CC(=O)N1C[C@H](C)N(c2nc(=O)n3c4c(c(-c5ccc(F)c(Cl)c5)c(C(F)(F)F)cc24)SC[C@@H]3COCOC)C[C@H]1C [Example 1363, (S)-7-((2S,5R)-4-acryloyl-2,5-dimethylpiperazin-1-yl)-10-(3-chloro-4-fluorophenyl)-3-((methoxymethoxy)methyl)-9-(trifluoromethyl)-2,3-dihydro-5H-[1,4]thiazino[2,3,4-ij]quinazolin-5-one]	92.1
[2H]C([2H])=C([2H])C(=O)N1[C@H](C)CN(c2nc(=O)n3c4c(c(-c5ccc(F)cc5)c(C(F)(F)F)cc24)SC[C@@H]3COC)C[C@@H]1C [Example 1366]	96.8
C=CC(=O)N1[C@H](C)CN(c2nc(=O)n3c4c(c(-c5c(F)cccc5F)c(C(F)(F)F)cc24)SC[C@@H]3COC)C[C@@H]1C [Example 1371, (S)-7-((3S,5R)-4-acryloyl-3,5-dimethylpiperazin-1-yl)-10-(2,6-difluorophenyl)-3-(methoxymethyl)-9-(trifluoromethyl)-2,3-dihydro-5H-[1,4]thiazino[2,3,4-ij]quinazolin-5-one]	60.6
C=CC(=O)N1[C@H](C)CN(c2nc(=O)n3c4c(c(-c5ccc(F)c(Cl)c5)c(C(F)(F)F)cc24)SC[C@@H]3CN2CCN(C3CC3)CC2)C[C@@H]1C [Example 1372, (S)-7-((3S,5R)-4-acryloyl-3,5-dimethylpiperazin-1-yl)-10-(3-chloro-4-fluorophenyl)-3-((4-cyclopropylpiperazin-1-yl)methyl)-9-(trifluoromethyl)-2,3-dihydro-5H-[1,4]thiazino[2,3,4-ij]quinazolin-5-one]	77.2
